How the values were obtained:
Assay type in all cases: functional, cell-based
MDA-MB-231 = assay: Antiproliferative activity against human MDA-MB-231 cells after 72 hrs by sulforhodamine B assay; conditions: MDA-MB-231, 72 h
HCT-116 = assay: Antiproliferative activity against human HCT116 cells after 72 hrs by sulforhodamine B assay; conditions: HCT-116, 72 h
SK-HEP1 = assay: Antiproliferative activity against human SKHEP1 cells after 72 hrs by sulforhodamine B assay; conditions: SK-HEP1, 72 h
SNU-638 = assay: Antiproliferative activity against human SNU638 cells after 72 hrs by sulforhodamine B assay; conditions: SNU-638, 72 h
A549 = assay: Antiproliferative activity against human A549 cells after 72 hrs by sulforhodamine B assay; conditions: A549, 72 h
MCF7 = assay: Antiproliferative activity against human MCF7 cells after 72 hrs by sulforhodamine B assay; conditions: MCF7, 72 h

SMILES | IC50 (MDA-MB-231) | IC50 (HCT-116) | IC50 (SK-HEP1) | IC50 (SNU-638) | IC50 (A549) | IC50 (MCF7)
Cn1c(=O)n(-c2ccc(C(C)(C)C#N)cc2)c2c3cc(-c4cnc5ccccc5c4)ccc3ncc21 [DACTOLISIB] | 0.18 µM |  |  |  |  | 
COc1ncc(-c2ccc3ncnc(NCCCN(C)C)c3c2)cc1NS(=O)(=O)c1ccc(F)cc1F | 1.54 µM | 2.2 µM | 4.68 µM | 1.26 µM | 2.78 µM | 3.66 µM
CCCCS(=O)(=O)Nc1cc(-c2ccc3ncnc(NCCCN4CCOCC4)c3c2)cnc1OC | 2.58 µM | 1.74 µM | 1.14 µM | 0.98 µM | 3.14 µM | 4.59 µM
CCCCS(=O)(=O)Nc1cc(-c2ccc3ncnc(NCCN4CCOCC4)c3c2)cnc1OC | 0.42 µM | 0.59 µM | 0.44 µM | 0.61 µM | 1.56 µM | 10.8 µM

Source: ChEMBL document CHEMBL4219088, “Novel 4-aminoquinazoline derivatives induce growth inhibition, cell cycle arrest and apoptosis via PI3Kα inhibition” (Bioorg Med Chem, 2018)
